From ChEMBL document CHEMBL1201862, “PubChem BioAssay data set” (2004)
Calls of active or inactive are those of the source. No stated cut-off is given here; in the data, actives have a measured IC50 and inactives only a lower limit.

Molecular target: Envelope glycoprotein gp160 (Human immunodeficiency virus 1, UniProt Q6QLK5)
Experiment: inhibitors of HIV fusion peptide binding, primary screen, biochemical, uHTS, fluorescence dequenching (AID 1986)

Chain of Envelope glycoprotein gp160 (Q6QLK5 whole entry, the tested form may be a part): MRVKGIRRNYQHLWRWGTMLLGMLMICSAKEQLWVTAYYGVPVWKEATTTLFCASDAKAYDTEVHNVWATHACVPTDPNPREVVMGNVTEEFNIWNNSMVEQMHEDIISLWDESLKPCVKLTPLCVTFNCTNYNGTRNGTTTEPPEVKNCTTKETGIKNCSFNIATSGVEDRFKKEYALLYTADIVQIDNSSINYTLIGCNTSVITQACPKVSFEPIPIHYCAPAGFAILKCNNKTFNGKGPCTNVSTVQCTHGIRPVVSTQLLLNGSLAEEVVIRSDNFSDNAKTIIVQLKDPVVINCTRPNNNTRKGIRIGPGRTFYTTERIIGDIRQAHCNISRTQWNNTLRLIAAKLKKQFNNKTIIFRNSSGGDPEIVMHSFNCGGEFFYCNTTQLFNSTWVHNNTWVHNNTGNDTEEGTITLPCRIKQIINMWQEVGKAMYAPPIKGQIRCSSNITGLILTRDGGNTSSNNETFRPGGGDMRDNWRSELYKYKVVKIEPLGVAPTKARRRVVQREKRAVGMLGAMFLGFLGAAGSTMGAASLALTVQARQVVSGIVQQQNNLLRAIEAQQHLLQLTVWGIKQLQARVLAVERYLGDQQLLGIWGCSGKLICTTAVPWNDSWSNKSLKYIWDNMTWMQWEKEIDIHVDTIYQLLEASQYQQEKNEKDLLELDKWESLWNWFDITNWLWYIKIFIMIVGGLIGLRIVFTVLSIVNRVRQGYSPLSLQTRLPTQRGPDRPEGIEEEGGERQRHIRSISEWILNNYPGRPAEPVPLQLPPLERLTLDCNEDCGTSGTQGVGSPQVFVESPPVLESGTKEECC

## CCOC(=O)c1sc2nc3c(SCCC(=O)O)cc(C(=O)c4cc(OC)ccc4O)cn3c(=O)c2c1C
  IC50: 16 µM (active)
